Here are results for 20 compounds from patent publication US9682938B2, “Pyrazolone derivatives as nitroxyl donors” (Cardioxyl Pharmaceuticals, Inc., priority 2014, dated 2017).

What all share (type): in vitro ADME
A short description of series [1]: In vitro plasma stability, rat plasma. The note with it: male, pH 7.4, 5 μM, 37° C., sampling 0-360 minutes, read-out: T1/2 Rat. The method, then:
(§1) Certain compounds from Table 1 were tested for their stability in plasma. The assay system comprised plasma from rat, dog or human (at least 3 donors, male, pooled) at pH 7.4, and (ii) an anticoagulant (sodium heparin or sodium citrate). Each test compound (5 μM) was incubated in plasma at 37° C. on a THERMOMIXER® with shaking. Three samples (n=3) were taken at each of seven sampling time points: 0, 10, 30, 60, 90, 180 and 360 minutes. The samples were immediately combined with 3 volumes (i.e., 3 times the volume of plasma) of acetonitrile containing 1% formic acid and an internal standard to terminate the reaction. AB SCIEX API 3000 LC-MS/MS analysis of the test compounds was performed without a standard curve. Plasma half-lives (T1/2) of the test compounds were determined from graphs of the percent remaining values using the peak area response ratio.

Series [2] can be described thus: In vitro plasma stability, human plasma. The note with it: male, pH 7.4, 5 μM, 37° C., sampling 0-360 minutes, read-out: T1/2 Human. How it is done:
as §1

Series [3] can be described thus: In vitro plasma stability, dog plasma. The note with it: male, pH 7.4, 5 μM, 37° C., sampling 0-360 minutes, read-out: T1/2 Dog. The method, then:
as §1

As to `CN1N=C(c2ccc(SC(F)(F)F)cc2)C(C)(NO)C1=O` (stereo not drawn) [Compound 67, 4-(hydroxyamino)-1,4-dimethyl-3-(4-((trifluoromethyl)thio)phenyl)-1H-pyrazol-5(4H)-one], the half-life at 5 μM in series [1] stood at 106 min; in series [2] it was 59 min; in series [3], 78 min.

As for `CN1N=C(c2ccc(S(C)(=O)=O)c(N3CCOCC3)c2)C(C)(NO)C1=O` (stereo not drawn) [Compound 82, 4-(Hydroxyamino)-3-[4-methanesulfonyl-3-(morpholin-4-yl)phenyl]-1,4-dimethyl-4,5-dihydro-1H-pyrazol-5-one], the results for the half-life at 5 μM in series [1], in series [2] and in series [3] were 69 min, 46 min and 56 min, respectively.

For the compound `COc1cc(C2=NN(C)C(=O)C2(C)NO)ccc1S(C)(=O)=O` (stereo not drawn) [Compound 77, 4-(Hydroxyamino)-3-(4-methanesulfonyl-3-methoxyphenyl)-1,4-dimethyl-4,5-dihydro-1H-pyrazol-5-one], the half-life at 5 μM stood at 62 min in series [1], 40 min in series [2] and 37 min in series [3].

Turning to `CO/N=C(\C)C1(NO)C(=O)N(C)N=C1c1ccc(S(C)(=O)=O)cc1` (stereo not drawn) [Compound 42, 4-(hydroxyamino)-4-(1-(methoxyimino)ethyl)-2-methyl-5-(4-(methylsulfonyl)phenyl)-2,4-dihydro-3H-pyrazol-3-one], the figures for the half-life at 5 μM in series [1], in series [2] and in series [3] were 9 min, 6 min and 5 min, respectively.

For `CN1N=C(c2ccc([S+](C)[O-])c(F)c2)C(C)(NO)C1=O` (stereo not drawn) [Compound 38, 5-(3-fluoro-4-(methylsulfinyl)phenyl)-4-(hydroxyamino)-2,4-dimethyl-2,4-dihydro-3H-pyrazol-3-one], the half-life at 5 μM in series [1] came to 54 min; in series [2] it was 46 min; in series [3], 33 min.

As to `CN1N=C(c2ccc(Br)cc2)C(C)(NO)C1=O` (stereo not drawn) [Compound 108, 3-(4-Bromophenyl)-4-(hydroxyamino)-1,4-dimethyl-4,5-dihydro-1H-pyrazol-5-one], the half-life at 5 μM in series [1] was 89 min; in series [2], 61 min; in series [3], 136 min.

Consider `Cc1cc(C2=NN(C)C(=O)C2(C)NO)cc(C)c1S(C)(=O)=O` (stereo not drawn) [Compound 79, 4-(Hydroxyamino)-3-(4-methanesulfonyl-3,5-dimethylphenyl)-1,4-dimethyl-4,5-dihydro-1H-pyrazol-5-one], for which the values for the half-life at 5 μM in series [1], in series [2] and in series [3] were 85 min, 49 min and 49 min, respectively.

`CCO/N=C(\C)C1(NO)C(=O)N(C)N=C1C` (stereo not drawn) [Compound 106, 4-[1-(Ethoxyimino)ethyl]-4-(hydroxyamino)-1,3-dimethyl-4,5-dihydro-1H-pyrazol-5-one]: the half-life at 5 μM amounted to 7 min in series [1], 6 min in series [2] and 8 min in series [3].

As to `CCS(=O)(=O)c1ccc(C2=NN(C)C(=O)C2(C)NO)cc1` (stereo not drawn) [Compound 86, 3-[4-(Ethanesulfonyl)phenyl]-4-(hydroxyamino)-1,4-dimethyl-4,5-dihydro-1H-pyrazol-5-one], the figures for the half-life at 5 μM in series [1], in series [2] and in series [3] were 61 min, 47 min and 39 min, respectively.

Regarding `Cc1cc(C)cc(C2=NN(C)C(=O)C2(C)NO)c1` (stereo not drawn) [Compound 7, 5-(3,5-dimethylphenyl)-4-(hydroxyamino)-2,4-dimethyl-2,4-dihydro-3H-pyrazol-3-one], the half-life at 5 μM in series [1] amounted to 34 min; in series [2] it was 104 min; in series [3] it was 117 min.

Consider `CN1N=C(c2ccc(F)cc2)C(C)(NO)C1=O` (stereo not drawn) [Compound 5, 5-(4-fluorophenyl)-4-(hydroxyamino)-2,4-dimethyl-2,4-dihydro-3H-pyrazol-3-one], for which the half-life at 5 μM in series [1] stood at 78 min; in series [2], 108 min; in series [3], 172 min.

As to `CC(C)N1N=C(c2ccccc2F)C(C)(NO)C1=O` (stereo not drawn) [Compound 26, 5-(2-fluorophenyl)-4-(hydroxyamino)-2-iso-propyl-4-methyl-2,4-dihydro-3H-pyrazol-3-one], the half-life at 5 μM in series [1] came to 42 min; in series [2] it was 45 min; in series [3], 65 min.

On to `CN1N=C(c2ccccc2[S+](C)[O-])C(C)(NO)C1=O` (stereo not drawn) [Compound 21, 4-(hydroxyamino)-2,4-dimethyl-5-(2-(methylsulfinyl)phenyl)-2,4-dihydro-3H-pyrazol-3-one], for which the figures for the half-life at 5 μM in series [1], in series [2] and in series [3] were 36 min, 41 min and 24 min, respectively.

On to `CO/N=C(\C)C1(NO)C(=O)N(C)N=C1c1ccc(C(=O)N(C)C)cc1` (stereo not drawn) [Compound 123, 4-[4-(Hydroxyamino)-4-[1-(methoxyimino)ethyl]-1-methyl-5-oxo-4,5-dihydro-1H-pyrazol-3-yl]-N,N-dimethylbenzamide], for which the half-life at 5 μM in series [1] came out at 11 min; in series [2] it was 6 min; in series [3], 6 min.

For `Cc1cc(C2=NN(C)C(=O)C2(C)NO)ccc1[S+](C)[O-]` (stereo not drawn) [Compound 39, 4-(hydroxyamino)-2,4-dimethyl-5-(3-methyl-4-(methylsulfinyl)phenyl)-2,4-dihydro-3H-pyrazol-3-one], the half-life at 5 μM in series [1] is 134 min; in series [2], 60 min; in series [3] it was 59 min.

Consider `CC(C)S(=N)(=O)c1ccc(C2=NN(C)C(=O)C2(C)NO)cc1` (stereo not drawn) [Compound 120, 4-(Hydroxyamino)-3-{4-[imino(oxo)propan-2-yl-λ^6-sulfanyl]phenyl}-1,4-dimethyl-4,5-dihydro-1H-pyrazol-5-one], for which the half-life at 5 μM in series [1] worked out at 56 min; in series [2] it was 32 min; in series [3], 31 min.

As to `CN1CCN(c2cc(C3=NN(C)C(=O)C3(C)NO)ccc2S(C)(=O)=O)CC1` (stereo not drawn) [Compound 88, 4-(Hydroxyamino)-3-[4-methanesulfonyl-3-(4-methylpiperazin-1-yl)phenyl]-1,4-dimethyl-4,5-dihydro-1H-pyrazol-5-one], the half-life at 5 μM in series [1] worked out at 65 min; in series [2], 49 min; in series [3] it was 42 min.

Regarding `C/C(=N\OCc1ccccc1)C1(NO)C(=O)N(C)N=C1C(C)(C)C` (stereo not drawn) [Compound 115, 4-[1-[(Benzyloxy)imino]ethyl]-3-tert-butyl-4-(hydroxyamino)-1-methyl-4,5-dihydro-1H-pyrazol-5-one], the half-life at 5 μM amounted to 32 min in series [1], 14 min in series [2] and 27 min in series [3].

`CC1(NO)C(=O)NN=C1c1ccc(S(C)(=O)=O)cc1` (stereo not drawn) [Compound 133, 4-(Hydroxyamino)-3-(4-methanesulfonylphenyl)-4-methyl-4,5-dihydro-1H-pyrazol-5-one]: the results for the half-life at 5 μM in series [1], in series [2] and in series [3] were 116 min, 110 min and 126 min, respectively.

On to `CO/N=C(\C)C1(NO)C(=O)N(c2ccccc2)N=C1[S+]([O-])c1ccccc1` (stereo not drawn) [Compound 130, 3-(Benzenesulfinyl)-4-(hydroxyamino)4[1-(methoxyimino)ethyl]-1-phenyl-4,5-dihydro1H-pyrazol-5-one], for which the half-life at 5 μM in series [1], in series [2] and in series [3] was less than 1 min each time.
